ChEMBL document CHEMBL3621056, “Discovery of mitochondria-targeting berberine derivatives as the inhibitors of proliferation, invasion and migration against rat C6 and human U87 glioma cells” (Medchemcomm, 2015)
Activity calls are given as the source filed them. The rule behind the calls is not given here.

What was measured:
[1] = n-octanol/water partition coefficient, log P of the compound by HPLC analysis; format: physicochemical
C6 [2] = assay: Cytotoxicity against rat C6 cells assessed as inhibition of cell proliferation after 24 hrs by MTT assay; format: functional, cell-based; details: for IC50: C6, 24 h
[3] = (§1) Cytotoxicity against human U87 cells assessed as inhibition of cell proliferation after 24 hrs by MTT assay; format: functional, cell-based, U-87MG ATCC; details: U-87 MG
U-87MG ATCC [4] = assay: as §1; format: functional, cell-based
C6 [5] = assay: Antimigratory activity in rat C6 cells at 0.5 uM after 24 hrs by Transwell assay relative to control; format: functional
C6 [6] = assay: Antiinvasive activity in rat C6 cells at 0.5 uM after 24 hrs by Transwell assay relative to control; format: functional
[7] = (§2) Antimigratory activity in human U87 cells at 2.5 uM after 24 hrs by Transwell assay relative to control; format: functional, U-87MG ATCC
[8] = (§3) Antiinvasive activity in human U87 cells at 2.5 uM after 24 hrs by Transwell assay relative to control; format: functional, U-87MG ATCC
C6 [9] = assay: Induction of intracellular reactive oxygen species formation in rat C6 cells at 2 uM after 24 hrs by DHE dye-based inverted fluorescent microscopic analysis; format: functional, cell-based
U-87MG ATCC [10] = assay: Induction of intracellular reactive oxygen species formation in human U87 cells at 2 uM after 24 hrs by DHE dye-based inverted fluorescent microscopic analysis; format: functional, cell-based
[11] = Cytotoxicity against human U87 cells assessed as cell survival rate up to 20 uM after 24 hrs by MTT assay relative to control; format: functional, U-87MG ATCC
[12] = Drug uptake in mitochondria of rat C6 cells at 1 uM after 24 hrs by Mitotracker Green FM staining-based laser confocal microscopic analysis; format: ADME; details: c6, 24 h
[13] = Drug uptake in mitochondria of human U87 cells at 1 uM after 24 hrs by Mitotracker Green FM staining-based laser confocal microscopic analysis; format: ADME; details: u-87mg atcc
U-87MG ATCC [14] = assay: as §2; format: functional
[15] = Cytotoxicity against human U87 cells assessed as growth inhibition after 72 hrs by SRB assay; format: functional, cell-based, U-87MG ATCC; details: U-87 MG
[16] = Antiinvasive activity in human U87 cells at 2 uM after 24 hrs by Transwell assay relative to control; format: functional, U-87MG ATCC
[17] = Antimigratory activity in human U87 cells at 2 uM after 24 hrs by Transwell assay relative to control; format: functional, U-87MG ATCC
C6 [18] = assay: Cytotoxicity against rat C6 cells assessed as cell survival rate at 10 uM after 24 hrs by MTT assay relative to control; format: functional; details: C6, 24 h, read-out: Survival
[19] = Cytotoxicity against human U87 cells assessed as cell survival rate at 10 uM after 24 hrs by MTT assay relative to control; format: functional, U-87MG ATCC; details: U-87 MG, read-out: Survival
[20] = (§4) Antimigratory activity in human U87 cells at 0.5 uM after 24 hrs by Transwell assay relative to control; format: functional, U-87MG ATCC
[21] = (§5) Antiinvasive activity in human U87 cells at 0.5 uM after 24 hrs by Transwell assay relative to control; format: functional, U-87MG ATCC
C6 [22] = assay: Cytotoxicity against rat C6 cells assessed as cell survival rate at 20 uM after 24 hrs by MTT assay relative to control; format: functional; details: C6, 24 h, read-out: Survival
[23] = Cytotoxicity against human U87 cells assessed as cell survival rate at 20 uM after 24 hrs by MTT assay relative to control; format: functional, U-87MG ATCC; details: U-87 MG, read-out: Survival
U-87MG ATCC [24] = assay: as §3; format: functional
C6 [25] = assay: Antimigratory activity in rat C6 cells at 1 uM after 24 hrs by Transwell assay; format: functional, cell-based
C6 [26] = assay: Antiinvasive activity in rat C6 cells at 1 uM after 24 hrs by Transwell assay; format: functional, cell-based
U-87MG ATCC [27] = assay: as §4; format: functional
U-87MG ATCC [28] = assay: as §5; format: functional
C6 [29] = assay: Antimigratory activity in rat C6 cells at 5 uM after 24 hrs by Transwell assay; format: functional, cell-based
C6 [30] = assay: Antiinvasive activity in rat C6 cells at 5 uM after 24 hrs by Transwell assay; format: functional, cell-based
U-87MG ATCC [31] = assay: Antimigratory activity in human U87 cells at 5 uM after 24 hrs by Transwell assay; format: functional, cell-based
U-87MG ATCC [32] = assay: Antiinvasive activity in human U87 cells at 5 uM after 24 hrs by Transwell assay; format: functional, cell-based

| Compound | logP [1] | inhibition (C6 [2]) | IC50 (C6 [2]) [µM] | IC50 [3] [µM] | inhibition (U-87MG ATCC [4]) | Activity (C6 [5]) | Activity (C6 [6]) | Activity [7] [%] | Activity [8] [%] | Activity (C6 [9]) | Activity (U-87MG ATCC [10]) | Drug uptake [12] | Drug uptake [13] | viability at 10 µM (C6 [18]) [%] | viability at 10 µM [19] [%] | further results |
| --- | --- | --- | --- | --- | --- | --- | --- | --- | --- | --- | --- | --- | --- | --- | --- | --- |
| COc1ccc2cc3[n+](cc2c1OCc1ccccc1)CCc1cc2c(cc1-3)OCO2.[Br-] | -0.86 | Dose-dependent effect | 11.5 | > 20 | Dose-dependent effect | >30% | >30% | >30 | >30 | Active | Active |  |  |  |  |  |
| CCCCCCCCCCCCCCCCOc1c(OC)ccc2cc3[n+](cc12)CCc1cc2c(cc1-3)OCO2.[Br-] | 3.41 | Dose-dependent effect | 6.12 | 15.2 | Dose-dependent effect | >60% | >60% | >60 | >60 |  |  | Active | Active |  |  | Survival [11]: 38.95% |
| CCCCCCCCCCOc1c(OC)ccc2cc3[n+](cc12)CCc1cc2c(cc1-3)OCO2 | 2.26 | Dose-dependent effect | 2.95 | 5.73 | Dose-dependent effect | Active | Active |  |  | Active | Active |  |  |  |  | Activity (U-87MG ATCC [14]): Active |
| CCc1c2c(nc3ccc(OC(=O)N4CCC(N5CCCCC5)CC4)cc13)-c1cc3c(c(=O)n1C2)COC(=O)[C@]3(O)CC [IRINOTECAN] |  |  |  |  |  |  |  |  |  |  |  |  |  |  |  | IC50 [15]: > 250 µM |
| CCCCCCCCCCCCOc1c(OC)ccc2cc3[n+](cc12)CCc1cc2c(cc1-3)OCO2.[Br-] | 3.43 | Dose-dependent effect | 1.24 | 4.55 | Dose-dependent effect | >60% | >60% |  |  | Active | Active | Active | Active |  |  | Activity [16]: >60%; Activity [17]: >60% |
| CCCCCCCCCCCCCCCCc1c2[n+](cc3c(OC)c(OC)ccc13)CCc1cc3c(cc1-2)OCO3.[I-] | 3.24 | Dose-dependent effect | 1.67 | 3.25 | Dose-dependent effect | >30% | >30% |  |  |  |  | Active | Active | < 20 | < 20 | Activity [20]: >30%; Activity [21]: >30% |
| CCCCCCCCCCCCCCCCCCOc1c(OC)ccc2cc3[n+](cc12)CCc1cc2c(cc1-3)OCO2.[Br-] | 3.01 | Dose-dependent effect | 4.45 | 22.5 | Dose-dependent effect | >30% | >30% | >30 | >30 | inactive | inactive |  |  |  |  |  |
| COc1ccc2c(Cc3ccccc3)c3[n+](cc2c1OC)CCc1cc2c(cc1-3)OCO2 | -0.73 | Dose-dependent effect | 14.4 | > 20 | Dose-dependent effect |  |  |  |  | inactive | inactive |  |  |  |  | viability at 20 µM (C6 [22]): 37.2%; viability at 20 µM [23]: 67.2%; Activity (U-87MG ATCC [14]): inactive; Activity (U-87MG ATCC [24]): inactive; Activity (C6 [25]): inactive; Activity (C6 [26]): inactive |
| Cn1nnc2c(C(N)=O)ncn2c1=O [TEMOZOLOMIDE] |  |  |  |  |  |  |  |  |  |  |  |  |  |  |  | IC50 [15]: 19.4 µM |
| CCCCCCCCCCc1c2[n+](cc3c(OC)c(OC)ccc13)CCc1cc3c(cc1-2)OCO3 | 2.37 | Dose-dependent effect | 1.12 | 3.65 | Dose-dependent effect | Active | Active |  |  | Active | Active |  |  | < 20 | < 20 | Activity (U-87MG ATCC [27]): Active; Activity (U-87MG ATCC [28]): Active |
| CCCCCCCCCCCCc1c2[n+](cc3c(OC)c(OC)ccc13)CCc1cc3c(cc1-2)OCO3.[I-] | 3.66 | Dose-dependent effect | 1.65 | 3.09 | Dose-dependent effect | >60% | >60% |  |  | Active | Active | Active | Active | < 20 | < 20 | Activity [20]: >60%; Activity [21]: >60% |
| CCCCCCCCCCCCCCCCCCc1c2[n+](cc3c(OC)c(OC)ccc13)CCc1cc3c(cc1-2)OCO3.[I-] | 3.22 | Dose-dependent effect | 2.37 | 5.75 | Dose-dependent effect | >30% | >30% | >30 | >30 | inactive | inactive |  |  | < 20 | < 20 |  |
| COc1ccc2cc3[n+](cc2c1OC)CCc1cc2c(cc1-3)OCO2.[Cl-] [BERBERINE CHLORIDE] | -1.68 |  | > 20 | > 20 |  |  |  |  |  | inactive | inactive | Active | Active |  |  | Activity (C6 [29]): Active; Activity (C6 [30]): Active; Activity (U-87MG ATCC [31]): Active; Activity (U-87MG ATCC [32]): Active |
